Key:
[1] = target: T1, Pol theta (residues 1819-2590) (Homo sapiens, UniProt O75417); assay: PPi assay (inhibition of polymerase activity of Pol theta, PPiLite luminescence); assay type: biochemical; settings: Pol theta 2.8 nM; luminescence kinetic mode 90 min
T1 construct: Pol theta polymerase domain (residues 1819-2590) at a final concentration of 4 nM
T1 sequence (O75417 1819-2590): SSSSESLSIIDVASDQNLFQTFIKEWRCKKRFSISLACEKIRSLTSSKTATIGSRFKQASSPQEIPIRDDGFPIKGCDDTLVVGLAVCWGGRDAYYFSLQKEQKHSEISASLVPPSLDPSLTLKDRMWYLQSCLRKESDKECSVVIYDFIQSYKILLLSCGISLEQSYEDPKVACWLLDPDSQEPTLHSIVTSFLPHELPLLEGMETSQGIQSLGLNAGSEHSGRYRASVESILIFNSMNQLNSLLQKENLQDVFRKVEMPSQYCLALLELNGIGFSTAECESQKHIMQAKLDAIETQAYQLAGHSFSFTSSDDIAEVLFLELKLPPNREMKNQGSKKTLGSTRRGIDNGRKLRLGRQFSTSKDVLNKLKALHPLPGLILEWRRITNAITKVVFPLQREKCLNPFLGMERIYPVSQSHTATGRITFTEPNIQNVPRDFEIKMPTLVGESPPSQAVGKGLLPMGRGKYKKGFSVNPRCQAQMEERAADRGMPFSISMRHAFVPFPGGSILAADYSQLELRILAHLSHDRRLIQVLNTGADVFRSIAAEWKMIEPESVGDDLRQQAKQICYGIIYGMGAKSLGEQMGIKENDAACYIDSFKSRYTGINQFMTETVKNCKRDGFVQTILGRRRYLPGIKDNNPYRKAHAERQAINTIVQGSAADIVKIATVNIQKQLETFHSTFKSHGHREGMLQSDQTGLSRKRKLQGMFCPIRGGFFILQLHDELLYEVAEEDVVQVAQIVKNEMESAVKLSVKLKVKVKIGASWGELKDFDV
Experimental: The ability of the compounds of Formula (I) or Formula (II) to inhibit polymerase activity of Pol theta was determined using the PPi assay as set forth below.
A mixture of template DNA strand (SEQ ID NO:4: 5′ ATTACTGACCTCATACTTCTGCCCTTCCATGTTCTGTGCCCTCCTTCC 3′) and primer DNA strand (SEQ ID NO:5: 5′ GGA AGG AGG GCA CAG AAC 3′) was annealed in 10 mM Tris-HCl pH 8.0, […] buffer to form the primed DNA substrate. A 10-point dilution series of compounds were used in a 384 well format for the inhibition assay. Pol theta (residues 1819-2590) (2.8 nM) in assay buffer (20 mM Tris-HCl pH 7.8, 50 mM KCl, 10 mM MgCl2, 1 mM DTT, 0.01% BSA, 0.01% Tween-20) was transferred to the test wells (10 uL), except for the low control wells. The plate was then incubated at room temperature for 15 mins. An equal volume (10 μL) of dNTP substrate (40 μM) and primed DNA substrate (800 nM) in assay buffer was added to all the test wells. 20 μL of PPi detection reagent (PPiLite inorganic pyrophosphate assay, Lonzo) was then added to all test wells. The plate was then centrifuged at 1000 rpm for 1 min. The reaction was monitored in a Tecan M1000 Pro plate reader in luminescence kinetic mode for 90 min. The high control (DMSO with enzyme) with high luminescence represents no inhibition of the polymerase reaction while the low control (DMSO with buffer) with low luminescence represents full inhibition of the polymerase activity. Slope of the reaction progress curves were used to calculate the rate of polymerization. The rates were used to determine the percent inhibition using a four-parameter inhibition model to generate IC50, Hill slope, maximum inhibition, and minimum inhibition.

[2] = target: T2, Pol theta polymerase domain (residues 1819-2590) (Homo sapiens, UniProt O75417); assay: Primer extension assay (inhibition of polymerase activity of Pol theta, molecular beacon fluorescence); assay type: biochemical; settings: Pol theta polymerase domain 4 nM; fluorescence change over 30 min
T2 construct: Pol theta polymerase domain (residues 1819-2590) at a final concentration of 4 nM
T2 sequence (O75417 1819-2590): T1 sequence (O75417 1819-2590)
Experimental: The ability of the compounds of Formula (I) or Formula (II) to inhibit polymerase activity of Pol theta was determined using the primer extension assay as set forth below.
A mixture of 20 uL of Pol theta polymerase domain (residues 1819-2590) at a final concentration of 4 nM in assay buffer (20 m M TRIS, pH 7.80, 50 mM KCl, 10 mM MgCl2, 1 mM DTT, 0.01% BSA, 0.01% Tween20) was added to test compounds (11-point dilution series of test compounds) except the low control wells without test compounds. The above enzyme and test compound inhibitor mixture was then incubated at room temperature for 15 min. An equal volume (20 μl) of dNTP substrate mixture (48 μM) and primed molecular beacon DNA (obtained by annealing template SEQ ID NO:2: (5′-CCTTCCTCCCGTGTCTTG-TACCTTCCCGTCA-GGAGGAAGG-3′) with 5′-TAMRA and 3′-BHQ and primer DNA (SEQ ID NO:3; 5′-GACGGGAAGG-3′) in 10 mM Tris-HCl pH 8.0, 100 mM NaCl buffer) (96 nM) in assay buffer was added to all the test wells. The inhibition activity was measured by monitoring the fluorescence change over 30 min at 535 nm upon excitation at 485 nm. The high control (DMSO with enzyme) with high fluorescence intensity represents no inhibition of polymerase reaction while the low control (DMSO with buffer) with low fluorescence intensity represents full inhibition of polymerase activity. Slope of the reaction progress curves were used to calculate the rate of polymerization. The rates were used to determine the percent inhibition using a four-parameter inhibition model to generate IC50, Hill slope and max inhibition.

Question: What does the source list for `CN(C(=O)[C@H]1CCCN1c1cc(C(F)(F)F)cc(C(F)(F)F)n1)c1ccc(F)cc1` [1.002, (R)-1-(4,6-bis(trifluoromethyl)pyridin-2-yl)-N-(4-fluorophenyl)-N-methylpyrrolidine-2-carboxamide]?
Answer: IC50 [1]: 1000 to 10000 nM; IC50 [2]: 1000 to 10000 nM

Question: `CN(C(=O)[C@@H]1CCCN1c1cc(C(F)(F)F)cc(C(F)(F)F)n1)c1ccc(F)cc1` [1.003, (S)-1-(4,6-bis(trifluoromethyl)pyridin-2-yl)-N-(4-fluorophenyl)-N-methylpyrrolidine-2-carboxamide] was tested. Which IC50 [1] did it give?
Answer: The IC50 was ≤ 200 nM.

Question: And the IC50 [2]?
Answer: Its IC50 is ≤ 200 nM.

Question: How did the IC50 [1] turn out when `CN(C(=O)C1COCCN1c1cc(C(F)(F)F)cc(C(F)(F)F)n1)c1ccc(F)cc1` (centres unmarked) [1.006, 4-(4,6-bis(trifluoromethyl)pyridin-2-yl)-N-(4-fluorophenyl)-N-methylmorpholine-3-carboxamide] was run?
Answer: Its IC50 is 1000 to 10000 nM.

Question: What about the IC50 [2] of the same compound?
Answer: Its IC50 is ≤ 200 nM.

Question: With `CN(C(=O)[C@@H]1[C@@H](O)CCN1c1cc(C(F)(F)F)cc(C(F)(F)F)n1)c1ccc(F)cc1` [1.019, (2S,3S)-1-(4,6-bis(trifluoromethyl)pyridin-2-yl)-N-(4-fluorophenyl)-3-hydroxy-N-methylpyrrolidine-2-carboxamide] as the compound, how does the IC50 [1] read?
Answer: The IC50 was ≤ 200 nM.

Question: And the IC50 [2]?
Answer: Its IC50 is ≤ 200 nM.

Question: `CC(=O)N[C@H]1C[C@@H](C(=O)N(C)c2ccc(F)cc2)N(c2cc(C(F)(F)F)cc(C(F)(F)F)n2)C1` [1.020, (2S,4S)-4-acetamido-1-(4,6-bis(trifluoromethyl)pyridin-2-yl)-N-(4-fluorophenyl)-N-methylpyrrolidine-2-carboxamide] was tested. Which IC50 [1] did it give?
Answer: The IC50 was ≤ 200 nM.

Question: And the IC50 [2]?
Answer: Its IC50 is ≤ 200 nM.

Question: What does the source list for `CC(=O)N[C@@H]1C[C@@H](C(=O)N(C)c2ccc(F)cc2)N(c2cc(C(F)(F)F)cc(C(F)(F)F)n2)C1` [1.022, (2S,4R)-4-acetamido-1-(4,6-bis(trifluoromethyl)pyridin-2-yl)-N-(4-fluorophenyl)-N-methylpyrrolidine-2-carboxamide]?
Answer: IC50 [1]: ≤ 200 nM; IC50 [2]: ≤ 200 nM

Question: With `CN(C(=O)C1CCCN1c1nc(C(F)(F)F)cc(C(F)(F)F)c1C#N)c1ccc(F)cc1` (centres unmarked) [1.024, 1-(3-cyano-4,6-bis(trifluoromethyl)pyridin-2-yl)-N-(4-fluorophenyl)-N-methylpyrrolidine-2-carboxamide] as the compound, how does the IC50 [1] read?
Answer: The IC50 was ≤ 200 nM.

Question: What about the IC50 [2] of the same compound?
Answer: The IC50 was ≤ 200 nM.

Reference: patent US20230303510A1, “CYCLIZED ACETAMIDO DERIVATIVES AS DNA POLYMERASE THETA INHIBITORS” (Ideaya Biosciences, Inc., priority 2020, published 2023)
